Test results from patent US20110262451A1, “MODULATORS OF ISOVALERYL-COENZYME A DEHYDROGENASE IN THE TREATMENT OF ACNE, OF SEBORRHOEIC DERMATITIS OR OF HYPERSEBORRHOEA” (priority 2008, published 2011).

Legend:
[1] = test system: isovaleryl-coenzyme A dehydrogenase; conditions: cited from earlier work
IVD = test: qRT-PCR expression of IVD in rat sebaceous gland (epidermal split) after topical PPARgamma agonist; assay type: in vivo; conditions: topical 1% in acetone, T = 96 h, female FUZZY rat, relative induction versus carrier group, standardized to 18S
Protocol: (§1) • Strain: Ico: Hsd: FUZZY-fz • Gender: female • Age: 10 weeks Number per batch: 40 (8 animals per group) Treatment: Route of administration: topical • Compound/batch: PPARgamma agonist (rosiglitazone) • Doses: 1% • Carrier: acetone (001) • Duration 96 hours Method of evaluation: The animals are weighed at the beginning and at the end of the study. Skin biopsies are taken (6 samples of skin excised per rat) in order to analyze the expression of the genes (RNA extraction, reverse transcriptas and real-time PCR). The samples are stored overnight at 4° C. before incubation in 1M sodium bromide (NaBr) for 2 hours at 37° C. After incubation, the samples are separated into epidermis or dermis. The epidermal samples are stored at […] Under these conditions, the sebaceous glands are in the epidermal split. PCRs are carried out, beginning with the cDNAs originating from the epidermal splits containing sebaceous glands from control rats or rats treated with the PPARγ agonist: the mRNA is extracted using a column and quantified. The quality of the mRNAs is measured and is represented by the 18S/28S ratio. The results are standardized with respect to 18S expressed as relative induction versus untreated animals (carrier group). The statistical analysis is obtained using internal software based on a modified Monte Carlo statistical analysis.

PPARγ = test: qRT-PCR expression of PPARγ in rat sebaceous gland (epidermal split) after topical PPARgamma agonist; assay type: in vivo; conditions: topical 1% in acetone, T = 96 h, female FUZZY rat, relative induction versus carrier group, standardized to 18S
Protocol: as §1

Row | SMILES | Inhibition of isovaleryl-coenzyme A dehydrogenase [1] | Induction factor (IVD) (IVD) | Induction factor (PPARγ) (PPARγ)
1 | C=C1C[C@@H]1C[C@H](N)C(=O)O [hypoglycine A] | inhibitor |  | 
2 | COCCOCOc1ccc2cc(C(=O)N(C)Cc3cccc(-c4ccc(CC5SC(=O)NC5=O)cc4)c3)ccc2c1 (stereo not drawn) [PPARgamma agonist, 6-(2-methoxyethoxy-methoxy)naphthalene-2-carboxylic acid [4′-(2,4-dioxothiazolidin-5-ylmethyl)biphenyl-3-ylmethyl]methyl-amide] |  | 0.11 | 0.11
